Measurements reported in ChEMBL document CHEMBL3526156, “Bioactivation of the cancer chemopreventive agent tamoxifen to quinone methides by cytochrome P4502B6 and identification of the modified residue on the apoprotein” (Drug Metab Dispos, 2012).

Legend:
Format in all cases: ADME
Cytochrome P450 2B6 [1] = biological target: T1, Cytochrome P450 2B6 (Homo sapiens, UniProt P20813); test: Activity at CYP2B6 (unknown origin) expressed Escherichia coli C41 DE3 cells assessed as enzyme-mediated 4-hydroxytamoxifen quinone methide metabolite formation by measuring reactive metabolite adduct with GSHEE at 90 uM by LC-MS/MS analysis
T1 sequence (P20813 whole entry): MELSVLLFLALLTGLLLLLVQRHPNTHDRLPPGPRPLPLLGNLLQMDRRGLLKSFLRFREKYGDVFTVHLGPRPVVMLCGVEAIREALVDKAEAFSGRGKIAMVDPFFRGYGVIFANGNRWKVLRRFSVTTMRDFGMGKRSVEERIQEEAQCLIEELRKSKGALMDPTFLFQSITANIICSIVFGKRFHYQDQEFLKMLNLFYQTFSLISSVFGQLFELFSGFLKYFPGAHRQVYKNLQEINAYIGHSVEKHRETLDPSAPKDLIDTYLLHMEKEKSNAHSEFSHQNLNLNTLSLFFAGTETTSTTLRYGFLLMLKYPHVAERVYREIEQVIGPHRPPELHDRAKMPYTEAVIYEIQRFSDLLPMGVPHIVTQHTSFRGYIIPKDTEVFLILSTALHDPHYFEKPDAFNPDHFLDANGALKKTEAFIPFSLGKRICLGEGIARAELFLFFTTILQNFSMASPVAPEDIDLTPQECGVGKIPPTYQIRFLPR

Cytochrome P450 2B6 [2] = biological target: T1, Cytochrome P450 2B6; test: Activity at CYP2B6 (unknown origin) expressed Escherichia coli C41 DE3 cells assessed as compound formation by measuring retention time treated with tamoxifen at 60 uM by LC-MS/MS analysis
Cytochrome P450 2B6 [3] = biological target: T1, Cytochrome P450 2B6; test: Activity at CYP2B6 (unknown origin) expressed Escherichia coli C41 DE3 cells assessed as compound formation by measuring retention time treated with 4-hydroxytamoxifen at 90 uM by LC-MS/MS analysis
[4] = Drug metabolism in human liver microsomes assessed as compound formation by measuring retention time at 90 uM by LC-MS/MS analysis
Cytochrome P450 2B6 [5] = biological target: T1, Cytochrome P450 2B6; test: Inactivation of CYP2B6 (unknown origin) expressed in Escherichia coli C41 DE3 cells assessed as modified apo-P450 2B6 adduct formation at 60 uM after 10 mins by ESI-LC-MS analysis in presence of NADPH
Cytochrome P450 2B6 [6] = biological target: T1, Cytochrome P450 2B6; test: Inactivation of CYP2B6 (unknown origin) expressed in Escherichia coli C41 DE3 cells assessed as modified apo-P450 2B6 adduct formation at 60 uM by ESI-LC-MS analysis in presence of NADPH and GSHEE

CCC(=C(c1ccc(O)cc1)c1ccc(OCCN(C)C)cc1)c1ccccc1
Retention time (Cytochrome P450 2B6 [1]): 16.9 min

C/C=C(/C(=C1C=CC(=O)C=C1)c1ccc(OCCN(C)C)cc1)c1ccccc1
Retention_time (Cytochrome P450 2B6 [2]): 18.3 min | Retention_time (Cytochrome P450 2B6 [3]): 16.9 min | Retention_time [4]: 16.6 min

CC/C(=C(\c1ccccc1)c1ccc(OCCN(C)C)cc1)c1ccccc1 [TAMOXIFEN]
Activity (Cytochrome P450 2B6 [5]): Active | Activity (Cytochrome P450 2B6 [6]): Active
